Laboratory results: patent US10457710B2, “Antimicrobial peptides, their variants and uses” (priority 2015, dated 2019)
Where a SMILES comes first, the peptide text is derived from it. [ ]: non-standard residue; d: D form.

Tests used:
Assay type in all cases: cell-based
[1] = test system: clinical strains of E. cloacae; test: MIC, microdilution, clinical strains; settings: 0.02% BSA, 0.2% acetic acid
Procedure, shortened: (§1)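 Broth microdilution with inocula adjusted to 5.0×10^5 cfu/ml; peptides tested at 0.125 to 128 μg/ml and incubated at 37° C for 20 to 24 hours. Bacteria were grown in Mueller Hinton broth, yeasts in potato dextrose broth. MIC was the lowest concentration showing no visible growth.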

[2] = test system: clinical strains of E. coli; test: MIC, microdilution, clinical strains; settings: microdilution, Muller Hinton broth-cation adjusted, 0.02% BSA, 0.2% acetic acid
Procedure, shortened: as §1

[3] = test system: clinical strains of K. pneumoniae; test: MIC, microdilution, clinical strains; settings: 0.02% BSA, 0.2% acetic acid
Procedure, shortened: as §1

[4] = test system: clinical strains of P. aeruginosa; test: MIC, microdilution, clinical strains; settings: 0.02% BSA, 0.2% acetic acid
Procedure, shortened: as §1

[5] = test system: clinical strains of Proteus mirabilis; test: MIC, microdilution, clinical strains; settings: 0.02% BSA, 0.2% acetic acid
Procedure, shortened: as §1

[6] = test system: clinical strains of S. aureus; test: MIC, microdilution, clinical strains; settings: 0.02% BSA, 0.2% acetic acid
Procedure, shortened: as §1

[7] = test system: clinical strains of S. pneumoniae; test: MIC, microdilution, clinical strains; settings: 0.02% BSA, 0.2% acetic acid
Procedure, shortened: as §1

[8] = test system: clinical strains of Serratia marcescens; test: MIC, microdilution, clinical strains; settings: 0.02% BSA, 0.2% acetic acid
Procedure, shortened: as §1

[9] = test system: clinical strains of A. johnsonii; test: MIC, microdilution, clinical strains; parameters: unit: μg/ml; settings: Acinetobacter johnsonii strain 1, Muller Hinton broth-cation adjusted, 0.02% BSA, 0.2% acetic acid
Procedure, shortened: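 Broth microdilution in Potato dextrose broth, inoculum 5.0×10^5 cfu/ml, peptide 0.125–128 μg/ml, incubated at 37 °C for 20–24 h; MIC taken as lowest concentration without visible growth. A. johnsonii clinical strains were tested the same way in Mueller Hinton broth.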

[10] = test system: clinical strains of Acinetobacter baumannii; test: MIC, microdilution, clinical strains; parameters: unit: μg/ml; settings: 0.02% BSA, 0.2% acetic acid
Procedure, shortened: as §1

C. glabrata = test: MIC, clinical yeast strains; settings: D-form peptide, concentrations tested 0.125 to 128 μg/ml
Procedure, shortened: (§2)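 MIC = lowest peptide concentration without visual growth after 20–24 h at 37° C. Range 0.125–128 μg/ml, inoculum 5.0×10^5 cfu/ml, microdilution format. Antifungal tests used potato dextrose broth; bacterial tests used MH broth.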

C. parapsilosis = test: MIC, clinical yeast strains; settings: D-form peptide, concentrations tested 0.125 to 128 μg/ml
Procedure, shortened: as §2

Candida albicans = test: MIC, clinical yeast strains; settings: D-form peptide, concentrations tested 0.125 to 128 μg/ml
Procedure, shortened: as §2

C. quillermondiae = test: MIC, clinical yeast strains; settings: clinical yeast strain 1; D-form peptide; concentrations tested 0.125 to 128 μg/ml
Procedure, shortened: as §2

## CC[C@@H](C)[C@@H](NC(=O)[C@@H](CCSC)NC(=O)[C@@H](C)NC(=O)[C@@H](CCCNC(=N)N)NC(=O)[C@@H](Cc1c[nH]c2ccccc12)NC(=O)[C@@H](CCCCN)NC(=O)[C@H](N)CCCNC(=N)N)C(=O)N[C@H](CCCNC(=N)N)C(=O)N[C@H](CC(C)C)C(=O)N[C@H](Cc1c[nH]cn1)C(=O)N[C@H](C)C(=O)N[C@H](CCCCN)C(=O)N[C@H](Cc1c[nH]c2ccccc12)C(=O)N[C@H](CC(C)C)C(=O)N[C@H](CCCNC(=N)N)C(=O)N[C@H](CCCCN)C(=O)O [Chain105D] (H-[dR][dK][dW][dR][dA][dM][dI][dR][dL][dH][dA][dK][dW][dL][dR][dK]-OH)
[1]; Enterobacter cloacae strain 1, Muller Hinton broth-cation adjusted
  Minimum inhibitory concentration: 2
[1]; Enterobacter cloacae strain 2, Muller Hinton broth-cation adjusted
  Minimum inhibitory concentration: 2
[1]; Enterobacter cloacae strain 3, Muller Hinton broth-cation adjusted
  Minimum inhibitory concentration: 2
[1]; Enterobacter cloacae strain 4, Muller Hinton broth-cation adjusted
  Minimum inhibitory concentration: 2
[1]; Enterobacter cloacae strain 5, Muller Hinton broth-cation adjusted
  Minimum inhibitory concentration: 1
[2]; Escherichia coli strain 1
  Minimum inhibitory concentration: 1
[2]; Escherichia coli strain 2
  Minimum inhibitory concentration: 4
[2]; Escherichia coli strain 3
  Minimum inhibitory concentration: 1
[2]; Escherichia coli strain 4
  Minimum inhibitory concentration: 1
[2]; Escherichia coli strain 5
  Minimum inhibitory concentration: 2
[3]; Klebsiella pneumoniae strain 1, Muller Hinton broth-cation adjusted
  Minimum inhibitory concentration: 4
[3]; Klebsiella pneumoniae strain 2, Muller Hinton broth-cation adjusted
  Minimum inhibitory concentration: 2
[3]; Klebsiella pneumoniae strain 3, Muller Hinton broth-cation adjusted
  Minimum inhibitory concentration: 4
[3]; Klebsiella pneumoniae strain 4, Muller Hinton broth-cation adjusted
  Minimum inhibitory concentration: 4
[3]; Klebsiella pneumoniae strain 5, Muller Hinton broth-cation adjusted
  Minimum inhibitory concentration: 2
[4]; Pseudomonas aeruginosa strain 1, Muller Hinton broth-cation adjusted
  Minimum inhibitory concentration: 4
[4]; Pseudomonas aeruginosa strain 2, Muller Hinton broth-cation adjusted
  Minimum inhibitory concentration: 4
[4]; Pseudomonas aeruginosa strain 3, Muller Hinton broth-cation adjusted
  Minimum inhibitory concentration: 4
[4]; Pseudomonas aeruginosa strain 4, Muller Hinton broth-cation adjusted
  Minimum inhibitory concentration: 4
[4]; Pseudomonas aeruginosa strain 5, Muller Hinton broth-cation adjusted
  Minimum inhibitory concentration: 4
[5]; Proteus mirabilis strain 1, Muller Hinton broth-cation adjusted
  Minimum inhibitory concentration: >128
[5]; Proteus mirabilis strain 2, Muller Hinton broth-cation adjusted
  Minimum inhibitory concentration: 32
[5]; Proteus mirabilis strain 3, Muller Hinton broth-cation adjusted
  Minimum inhibitory concentration: 64
[5]; Proteus mirabilis strain 4, Muller Hinton broth-cation adjusted
  Minimum inhibitory concentration: >128
[5]; Proteus mirabilis strain 5, Muller Hinton broth-cation adjusted
  Minimum inhibitory concentration: >128
[6]; Staphylococcus aureus strain 1, Muller Hinton broth-cation adjusted
  Minimum inhibitory concentration: 2
[6]; Staphylococcus aureus strain 2, Muller Hinton broth-cation adjusted
  Minimum inhibitory concentration: 2
[6]; Staphylococcus aureus strain 3, Muller Hinton broth-cation adjusted
  Minimum inhibitory concentration: 2
[6]; Staphylococcus aureus strain 4, Muller Hinton broth-cation adjusted
  Minimum inhibitory concentration: 2
[6]; Staphylococcus aureus strain 5, Muller Hinton broth-cation adjusted
  Minimum inhibitory concentration: 2
[7]; Streptococcus pneumoniae strain 1, Muller Hinton broth-cation adjusted
  Minimum inhibitory concentration: 4
[7]; Streptococcus pneumoniae strain 2, Muller Hinton broth-cation adjusted
  Minimum inhibitory concentration: 2
[7]; Streptococcus pneumoniae strain 3, Muller Hinton broth-cation adjusted
  Minimum inhibitory concentration: 2
[7]; Streptococcus pneumoniae strain 4, Muller Hinton broth-cation adjusted
  Minimum inhibitory concentration: 4
[7]; Streptococcus pneumoniae strain 5, Muller Hinton broth-cation adjusted
  Minimum inhibitory concentration: 2
[8]; Serratia marcescens strain 1, Muller Hinton broth-cation adjusted
  Minimum inhibitory concentration: 128
[8]; Serratia marcescens strain 2, Muller Hinton broth-cation adjusted
  Minimum inhibitory concentration: 128
[8]; Serratia marcescens strain 3, Muller Hinton broth-cation adjusted
  Minimum inhibitory concentration: 128
[8]; Serratia marcescens strain 4, Muller Hinton broth-cation adjusted
  Minimum inhibitory concentration: 128
[8]; Serratia marcescens strain 5, Muller Hinton broth-cation adjusted
  Minimum inhibitory concentration: 128
[9]
  Minimum inhibitory concentration: 4
[10]; Acinetobacter baumannii strain 1, Muller Hinton broth-cation adjusted
  Minimum inhibitory concentration: 4
[10]; Acinetobacter baumannii strain 2, Muller Hinton broth-cation adjusted
  Minimum inhibitory concentration: 4
[10]; Acinetobacter baumannii strain 3, Muller Hinton broth-cation adjusted
  Minimum inhibitory concentration: 4
[10]; Acinetobacter baumannii strain 4, Muller Hinton broth-cation adjusted
  Minimum inhibitory concentration: 2
[10]; Acinetobacter baumannii strain 5, Muller Hinton broth-cation adjusted
  Minimum inhibitory concentration: 4
C. glabrata; clinical yeast strain 1
  Minimum inhibitory concentration, C. glabrata strain 1: 16
C. glabrata; clinical yeast strain 2
  Minimum inhibitory concentration, C. glabrata strain 2: 16
C. glabrata; clinical yeast strain 3
  Minimum inhibitory concentration, C. glabrata strain 3: 8
C. glabrata; clinical yeast strain 4
  Minimum inhibitory concentration, C. glabrata strain 4: 32
C. parapsilosis; clinical yeast strain 1
  Minimum inhibitory concentration, C. parapsilosis strain 1: 8
C. parapsilosis; clinical yeast strain 2
  Minimum inhibitory concentration, C. parapsilosis strain 2: 8
C. parapsilosis; clinical yeast strain 3
  Minimum inhibitory concentration, C. parapsilosis strain 3: 8
C. parapsilosis; clinical yeast strain 4
  Minimum inhibitory concentration, C. parapsilosis strain 4: 4
Candida albicans; clinical yeast strain 1
  Minimum inhibitory concentration, Candida albicans strain 1: 32
Candida albicans; clinical yeast strain 2
  Minimum inhibitory concentration, Candida albicans strain 2: 16
Candida albicans; clinical yeast strain 3
  Minimum inhibitory concentration, Candida albicans strain 3: 32
Candida albicans; clinical yeast strain 4
  Minimum inhibitory concentration, Candida albicans strain 4: 32
Candida albicans; clinical yeast strain 5
  Minimum inhibitory concentration, Candida albicans strain 5: 32
C. quillermondiae
  Minimum inhibitory concentration, C. quillermondiae strain 1: 8
